The text below walks through data of ChEMBL document CHEMBL1158241, “Inhibition of hepatitis B surface antigen secretion on human hepatoma cells. Components from Rubia cordifolia” (J Nat Prod, 1996).

Each structure is given as a SMILES string. In brackets after ≈: the same amount, converted by molar mass. Activity calls are given as the source filed them. The calls are words filed in the database; no cut-off is given here.

What is called IC50 is the concentration needed to halve the response being measured. A word on the CC50: it is the concentration that lowers cell viability or growth by half. A low value points to greater toxicity to the cells.

Data set [1] is described as follows: Cytotoxicity against human Hep3B cells at >20 […] by MTT assay. The class given is cell-based. The conditions noted are these: hep 3b2.
The test system of data set [2] is Hepatitis B virus. As to the kind of experiment: Antiviral activity against Hepatitis B virus infected in human Hep3B cells assessed as suppression of viral surface antigen secretion after 48 hrs by enzyme immunoassay. The class given is functional, organism-based, Hep 3B2.
The nature of data set [3]: Cytotoxicity against human Hep3B cells by MTT assay. In kind it is cell-based, Hep 3B2.
For data set [4], the system named is Hepatitis B virus. As to the kind of experiment: Antiviral activity against Hepatitis B virus infected in human Hep3B cells assessed as suppression of viral surface antigen secretion at >5 […] after 48 hrs by enzyme immunoassay. Conditions: Hep 3B2. In kind it is functional, organism-based.

Take `COc1c(C(=O)O)c2c(c3ccccc13)OC(C)(C)C=C2`: in data set [1], the Activity entry was “Not Active”. In the data set with Hepatitis B virus [2], the IC50 came to 4.5 mg/L (≈ 15.8 µM).

With `COc1c(C(=O)OCCC(C)C)c2c(c3ccccc13)OC(C)(C)C=C2`, the IC50 in the data set on Hepatitis B virus [2] was 0.8 mg/L (≈ 2.26 µM). The molecule also displayed a CC50 in data set [3] of 10 mg/L (≈ 28.2 µM).

In the case of `COC(=O)c1c2c(c3ccccc3c1OCc1ccccc1)OC(C)(C)C=C2`, the Activity result in data set [1] was “Not Active”. The IC50 in the data set with Hepatitis B virus [2] was 1 mg/L (≈ 2.67 µM).

With `COC(=O)c1c2c(c3ccccc3c1OC(C)=O)OC(C)(C)C=C2` [ACETYLMOLLUGIN], the IC50 in the data set on Hepatitis B virus [2] amounted to 2 mg/L (≈ 6.13 µM). In data set [3], half-maximal cytotoxicity (CC50) was put at 10 mg/L (≈ 30.6 µM).

In the case of `COC(=O)c1c2c(c3ccccc3c1OC)OC(C)(C)CC2` [DIHYDROMOLLUGIN METHYL ETHER], in data set [3], it took 7 mg/L (≈ 23.3 µM) to reach half-maximal cytotoxicity (CC50). The result with Hepatitis B virus [4] was inactive.

For the molecule `COC(=O)c1c2c(c3ccccc3c1O)OC(C)(C)CC2` [DIHYDROMOLLUGIN], the IC50 with Hepatitis B virus [2] was determined as 2 mg/L (≈ 6.99 µM). This molecule also yielded a CC50 in data set [3] of 8.2 mg/L (≈ 28.6 µM).

Take `COC(=O)c1c(O)c2ccccc2c2occc12` [FUROMOLLUGIN]: the IC50 with Hepatitis B virus [2] amounted to 2 mg/L (≈ 8.26 µM). The CC50 in data set [3] was 11.5 mg/L (≈ 47.5 µM).

`COC(=O)c1c(OC)c2ccccc2c2occc12` [METHYLFUROMOLLUGIN]: the Activity entry in data set [1] is on record as “Not Active”. Moreover, the outcome in the data set with Hepatitis B virus [4] was inactive.

In the case of `COC(=O)c1c(OC)c2ccccc2c2oc(=O)ccc12` [METHYLRUBILACTONE], the CC50 in data set [3] amounted to 12.5 mg/L (≈ 44 µM). Besides, the outcome with Hepatitis B virus [4] was inactive.

Consider `COC(=O)c1c2c(c3ccccc3c1OC)OC(C)(C)C=C2` [MOLLUGIN METHYL ETHER], for which the Activity entry in data set [1] was “Not Active”. The outcome in the data set with Hepatitis B virus [4] was inactive.

With `COC(=O)c1c2c(c3ccccc3c1O)OC(C)(C)C=C2` [MOLLUGIN], the Activity entry in data set [1] is reported as “Not Active”. Also, in the data set with Hepatitis B virus [2], the IC50 came out at 2 mg/L (≈ 7.03 µM).

Turning to `COC(=O)c1c(O)c2ccccc2c2oc(=O)ccc12` [RUBILACTONE], the half-maximal cytotoxic concentration (CC50) in data set [3] is 4 mg/L (≈ 14.8 µM). In the data set on Hepatitis B virus [4], the result was inactive.
